Here are results for one molecule from publication PMC12334608 (Nature Communications, 2025).

For assay [1], the target named is T1, ACOX-1.1(R295Q) (Caenorhabditis elegans, UniProt O62140, R295Q).
T1 sequence (O62140 1-674 R295Q): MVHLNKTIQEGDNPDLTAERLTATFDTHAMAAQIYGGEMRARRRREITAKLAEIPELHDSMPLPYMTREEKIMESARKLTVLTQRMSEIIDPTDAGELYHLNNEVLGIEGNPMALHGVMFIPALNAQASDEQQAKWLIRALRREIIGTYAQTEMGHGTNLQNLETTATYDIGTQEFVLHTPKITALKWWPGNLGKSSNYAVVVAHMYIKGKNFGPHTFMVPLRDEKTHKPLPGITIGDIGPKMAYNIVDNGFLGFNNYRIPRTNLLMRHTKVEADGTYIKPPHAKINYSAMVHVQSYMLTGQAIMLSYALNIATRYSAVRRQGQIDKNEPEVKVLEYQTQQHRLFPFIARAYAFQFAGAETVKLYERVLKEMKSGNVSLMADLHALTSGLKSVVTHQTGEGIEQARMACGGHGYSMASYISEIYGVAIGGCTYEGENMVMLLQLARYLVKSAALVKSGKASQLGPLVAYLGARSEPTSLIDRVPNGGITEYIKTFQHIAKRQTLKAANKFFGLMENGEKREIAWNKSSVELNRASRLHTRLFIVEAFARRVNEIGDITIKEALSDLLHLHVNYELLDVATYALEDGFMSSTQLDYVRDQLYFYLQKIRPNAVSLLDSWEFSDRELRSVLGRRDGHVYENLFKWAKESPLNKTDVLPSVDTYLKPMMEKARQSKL
Kind of assay: Enzyme-coupled kinetic assay, ACOX-1.1. In kind it is biochemical, C. elegans.

The target in assay [2] is T2, apo ACOX-1.1 (Caenorhabditis elegans, UniProt O62140).
T2 sequence (O62140 1-674): T1 sequence (O62140 1-674 R295Q) with Q295R
Kind of assay: FAD and ATP dissociation constants by fluorescence polarization. Type of assay: binding, C. elegans. The settings on record: KD of ACOX-1.1 for ATP, 4 μM apo ACOX-1.1, 100 nM FAD; 95% CI: 6.1–27.5 μM. A general note: Polarisation of emitted light reports the rotation of a fluorescent probe.

Assay [3] addresses T2, apo ACOX-1.1. Kind of assay: Enzyme-coupled kinetic assay, wild-type apo ACOX-1.1. Type of assay: biochemical, C. elegans. The settings on record: EC50 for ATP.
Assay [4] addresses T3, ACOX-1.1(K391N) (Caenorhabditis elegans, UniProt O62140, K391N).
T3 sequence (O62140 1-674 K391N): T1 sequence (O62140 1-674 R295Q) with Q295R, K391N
Kind of assay: Enzyme-coupled kinetic assay, ACOX-1.1. In kind it is biochemical, C. elegans.

The target in assay [5] is T4, ACOX-1.1(R343Q) (Caenorhabditis elegans, UniProt O62140, R343Q).
T4 sequence (O62140 1-674 R343Q): T1 sequence (O62140 1-674 R295Q) with Q295R, R343Q
Kind of assay: Enzyme-coupled kinetic assay, ACOX-1.1. Type of assay: biochemical, C. elegans. The settings on record: varying ATP.

Positions count from the first letter of the chain named. pEC50, pKd: −log10 of the molar value. “And” between values parts separate entries of the source, which are not always exact repeats. Equal entries are not always repeated.

What is called pKd is the negative decadic logarithm of the Kd, by convention in mol/L. Lower therefore signals a high Kd. What is called pEC50 is the negative decadic logarithm of the EC50, by convention in mol/L. Read a high pEC50 as a low EC50. As for `Nc1ncnc2c1ncn2[C@@H]1O[C@H](COP(=O)(O)OP(=O)(O)OP(=O)(O)O)[C@@H](O)[C@H]1O` [ATP], the “response of enzyme activity to ATP” value in assay [1] is “do not respond to ATP”; in assay [4] it was “did not respond to ATP”. This molecule also had a pKd in assay [2] of 4.68. For the same molecule, the pEC50 is 4.16 and ~4.16 in assay [3] (10 μM FAD, 95% CI: 54.8–87.1 μM); 3.96 in assay [3] (200 μM FAD, 95% CI: 40.5–328.8 μM). Also, in assay [5], the “influence of ATP on the activity of the enzyme” value was “no influence on the activity of the enzyme”.
